Laboratory results from patent publication EP3009422A1, “Photo-switchable sulfonylureas and their uses” (Ludwig-Maximilians-Universität München, priority 2014, dated 2016).

Assays:
SUR1 = molecular target: T1, SUR1 (Rattus norvegicus, UniProt Q09429); assay: [3H]-glibenclamide displacement radioassay in SUR1-expressing HEK293t cells; assay type: binding
T1 construct: expressed in transfected cells; host or cells: HEK293t
Method: SUR1-expressing HEK293t cells were harvested and washed twice in assaying buffer containing in mM: 119 NaCl, 4.7 KCl, […], 1.2 KH2PO4, 1.2 MgSO4, 5 NaHCO3, and 20 HEPES, pH 7.4. In a 96-well plate, ∼200,000 cells/well were incubated for 50 min with [3H]-glibenclamide (PerkinElmer) and different concentrations of glimepiride (Sigma-Aldrich) or JB253. Incubation was terminated by rapid filtration through Whatman GF/C filters by means of a Brandel MWXR-96 TI harvester and filters were washed 3 times with ice-cold assay buffer. Radioactivity was counted 6 h after cell and filter lysis in 200 µL Rotiszint EcoPlus (Roth) using a Packard microbeta scintillation counter (PerkinElmer).
Data distribution was determined using the D'Agostino omnibus test. Non-multifactorial pairwise comparisons were made using either the Student's t-test. Interactions between multiple treatments were assessed using one-way ANOVA followed by pairwise comparisons using Bonferroni's post-hoc test. Effect sizes in islets/cells are usually sufficiently large that multiple animals/independent replication is a more important determinant of power in studies requiring statistical comparison. Non-linear regression was used to calculate the EC50 of normalized and log-transformed concentration-response curves. For [3H]-glibenclamide displacement assays, data points were fitted to the Hill equation before calculation of the halfmax value. In all cases, analysis was performed using Graphpad Prism (Graphpad Software) and IgorPro, and experimental numbers reported as independent biological replicates. No animals or data were excluded from the analysis and results were considered significant at P<0.05.

[1] = Water solubility on dilution from DMSO stock; assay type: physicochemical; details: kinetic from dmso stock, diluted from a 50 mM stock solution in DMSO

T1 sequence (Q09429 whole entry): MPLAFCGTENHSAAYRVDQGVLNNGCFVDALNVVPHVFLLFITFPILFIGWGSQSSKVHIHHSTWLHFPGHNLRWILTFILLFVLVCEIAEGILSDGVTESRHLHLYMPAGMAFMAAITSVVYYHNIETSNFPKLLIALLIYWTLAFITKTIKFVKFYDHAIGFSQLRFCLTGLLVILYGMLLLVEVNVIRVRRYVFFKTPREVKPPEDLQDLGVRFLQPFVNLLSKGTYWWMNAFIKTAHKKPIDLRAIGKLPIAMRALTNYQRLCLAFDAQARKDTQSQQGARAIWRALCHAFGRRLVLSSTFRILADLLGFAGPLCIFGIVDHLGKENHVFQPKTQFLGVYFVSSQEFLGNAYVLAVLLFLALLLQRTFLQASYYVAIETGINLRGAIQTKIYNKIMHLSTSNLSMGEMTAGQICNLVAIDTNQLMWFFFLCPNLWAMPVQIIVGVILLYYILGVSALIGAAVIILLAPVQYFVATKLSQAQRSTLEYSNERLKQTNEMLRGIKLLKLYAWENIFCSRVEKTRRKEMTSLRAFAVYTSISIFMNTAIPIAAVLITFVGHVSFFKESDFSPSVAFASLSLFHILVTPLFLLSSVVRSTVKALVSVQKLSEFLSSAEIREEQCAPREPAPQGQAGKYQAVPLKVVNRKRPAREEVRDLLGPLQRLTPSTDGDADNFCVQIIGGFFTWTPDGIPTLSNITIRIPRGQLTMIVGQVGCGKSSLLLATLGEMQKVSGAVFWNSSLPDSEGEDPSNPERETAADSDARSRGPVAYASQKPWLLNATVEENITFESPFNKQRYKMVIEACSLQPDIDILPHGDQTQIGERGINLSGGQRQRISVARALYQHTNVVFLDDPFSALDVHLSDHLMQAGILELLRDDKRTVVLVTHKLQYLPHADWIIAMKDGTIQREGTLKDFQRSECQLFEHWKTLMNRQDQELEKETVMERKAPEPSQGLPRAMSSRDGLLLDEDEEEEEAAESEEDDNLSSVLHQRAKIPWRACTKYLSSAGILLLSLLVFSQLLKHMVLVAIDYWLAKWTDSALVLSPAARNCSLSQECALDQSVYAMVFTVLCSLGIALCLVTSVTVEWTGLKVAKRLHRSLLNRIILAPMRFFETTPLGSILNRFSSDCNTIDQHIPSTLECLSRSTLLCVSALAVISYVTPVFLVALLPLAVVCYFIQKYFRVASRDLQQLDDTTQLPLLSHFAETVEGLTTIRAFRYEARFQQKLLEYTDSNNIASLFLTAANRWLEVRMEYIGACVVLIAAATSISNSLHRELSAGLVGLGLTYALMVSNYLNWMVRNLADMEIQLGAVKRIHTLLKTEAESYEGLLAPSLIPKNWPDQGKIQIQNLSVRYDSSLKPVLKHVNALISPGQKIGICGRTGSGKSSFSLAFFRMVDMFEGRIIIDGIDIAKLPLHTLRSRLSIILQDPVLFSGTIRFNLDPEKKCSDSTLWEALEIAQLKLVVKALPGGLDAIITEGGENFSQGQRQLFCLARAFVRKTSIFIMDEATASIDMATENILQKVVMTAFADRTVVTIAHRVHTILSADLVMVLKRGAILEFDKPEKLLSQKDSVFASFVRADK

In the case of CCN(CC)c1ccc(/N=N/c2ccc(S(=O)(=O)NC(=O)NC3CCCCC3)cc2)cc1 [JB253, (E)-N-(cyclohexylcarbamoyl)-4-((4-(diethylamino)phenyl)diazenyl)benzenesulfonamide], the “lower affinity to SUR1 compared to glimepiride” value (SUR1; [3H]-glibenclamide displacement, unaffected by illumination) is reported as 1000 fold, the IC50 (SUR1; displacement of [3H]-glibenclamide, SUR1-expressing HEK293t cells, n = 3, cis-state may relax thermally during washing) is reported as 17.6 µM and the solubility [1] is reported as no less than 100 µM.
